Source: ChEMBL document CHEMBL5614419, “Discovery of novel BCL6-Targeting PROTACs with effective antitumor activities against DLBCL in vitro and in vivo” (Eur J Med Chem, 2024)
Calls of active or inactive are those of the source. No cut-off for these calls is given here.

Experiments:
[1] = MRT (0 to t) in male Sprague-Dawley rat at 10 mg/kg, ip measured upto 24 hrs by LC-MS/MS analysis; format: ADME, organism-based; details: in vivo
SUD4 [2] = assay: Upregulation of p27 protein level in human SU-DHL-4 cells at 5 uM by Western blot analysis; format: functional, cell-based; details: time 12-72 hrs, TDE = time-dependent effect
SUD4 [3] = assay: Upregulation of p27 protein level in human SU-DHL-4 cells at 5 uM preincubated for 48 hrs followed by compound elution and measured after 72 hrs by Western blot analysis; format: functional, cell-based
[4] = Half life in male Sprague-Dawley rat at 10 mg/kg, ip measured upto 24 hrs by LC-MS/MS analysis; format: ADME, organism-based; details: in vivo
SUD4 [5] = assay: Antiproliferative activity against BCL6-dependent human SU-DHL-4 cells assessed as inhibition of cell growth at 1 uM measured after 6 days by MTT assay relative to control; format: functional; details: SU-DHL-4, 144 h, time 6 day
[6] = MRT (0 to t) in male Sprague-Dawley rat at 20 mg/kg, po measured upto 24 hrs by LC-MS/MS analysis; format: ADME, organism-based; details: in vivo
OCI-Ly1 = assay: Antiproliferative activity against BCL6-dependent human OCI-Ly1 cells assessed as inhibition in cell growth measured after 6 days by MTT assay; details: OCI-Ly1, 144 h
[7] = AUC (0 to t) in male Sprague-Dawley rat at 20 mg/kg, po measured upto 24 hrs by LC-MS/MS analysis; format: ADME, organism-based; details: in vivo
DOHH-2 = assay: Antiproliferative activity against BCL6-dependent human DOHH-2 cells assessed as inhibition in cell growth measured after 6 days by MTS assay; details: DOHH-2, 144 h
SUD4 [8] = assay: Upregulation of p27 protein level in human SU-DHL-4 cells incubated for 48 hrs by Western blot analysis; format: functional, cell-based; details: dose 0.1-10 µM
[9] = Toxicity in female nude nu/nu mouse model xenografted with human SU-DHL-4 cells assessed as body weight loss at 10 to 40 mg/kg, ip measured after 21 days; format: organism-based, SUD4; details: in vivo, 504 h, dose 10-40 mg/kg, time 21 day
SUD4 [10] = assay: Upregulation of CDKN1A mRNA level in human SU-DHL-4 cells at 10 uM incubated for 48 hrs by RT-qPCR analysis; format: functional, cell-based
[11] = biological target: T1, Protein cereblon/B-cell lymphoma 6 protein (Homo sapiens, UniProt Q96SW2+P41182); assay: PROTAC activity at CRBN/BCL6 in human SU-DHL-4 cells assessed as induction of BCL6 degradation by measuring reduction in protein level at 5 uM measured upto 72 hrs by Western blot analysis; format: cell-based
T1 sequence (Q96SW2 whole entry, looked up, other chains not shown): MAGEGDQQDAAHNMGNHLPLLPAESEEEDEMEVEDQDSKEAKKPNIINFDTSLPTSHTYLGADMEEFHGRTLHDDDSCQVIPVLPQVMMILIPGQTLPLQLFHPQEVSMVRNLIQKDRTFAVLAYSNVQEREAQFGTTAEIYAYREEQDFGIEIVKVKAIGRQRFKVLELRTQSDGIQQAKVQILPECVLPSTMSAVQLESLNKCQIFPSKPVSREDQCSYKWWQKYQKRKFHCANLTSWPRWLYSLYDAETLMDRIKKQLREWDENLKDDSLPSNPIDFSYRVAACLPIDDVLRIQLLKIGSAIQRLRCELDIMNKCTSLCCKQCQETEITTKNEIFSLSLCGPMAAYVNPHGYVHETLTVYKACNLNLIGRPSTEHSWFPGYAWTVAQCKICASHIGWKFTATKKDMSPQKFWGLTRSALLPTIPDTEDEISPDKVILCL

SUD4 [12] = assay: Induction of apoptosis in human SU-DHL-4 cells at 10 uM; format: functional, cell-based
[13] = Antitumor activity against human SU-DHL-4 cells xenografted in female nude nu/nu mouse assessed as tumor growth inhibition at 10 mg/kg, ip measured after 21 days by microcaliper based analysis relative to control; format: functional, SUD4; details: SU-DHL-4, 504 h, time 21 day, read-out: TGI
[14] = biological target: T1, Protein cereblon/B-cell lymphoma 6 protein; assay: PROTAC activity at CRBN/BCL6 in BCL6-dependent human SU-DHL-4 cells assessed as induction of BCL6 degradation by measuring degradation rate at 10 uM incubated for 48 hrs by Western blot analysis relative to control; format: cell-based
[15] = AUC (0 to infinity) in male Sprague-Dawley rat at 10 mg/kg, ip measured upto 24 hrs by LC-MS/MS analysis; format: ADME, organism-based; details: in vivo
WI-38 VA13 = assay: (§1) Cytotoxicity against human WI-38 VA13 cells assessed as inhibition in cell growth measured after 6 days by MTT assay; format: toxicity, cell-based; details: wi-38 va13, 144 h, time 6 day
[16] = as §1; format: toxicity, cell-based; details: WI-38 VA13 cells
SUD4 [17] = assay: Antiproliferative activity against BCL6-dependent human SU-DHL-4 cells assessed as inhibition in cell growth measured after 6 days by MTT assay; details: SU-DHL-4, 144 h
[18] = tested on: Ibrutinib resistant DOHH2 cell; assay: Upregulation of p21 protein level in human Ibrutinib resistant DOHH2 cells at 0.1 to 10 uM incubated for 48 hrs by Western blot analysis; format: functional, cell-based; details: dose 0.1-10 µM
SUD4 [19] = assay: Induction of cell cycle arrest in human SU-DHL-4 cells assessed as G1 phase arrest at 500 nM in presence of Ibrutinib incubated for 72 hrs by flow cytometry; format: functional, cell-based
[20] = AUC (0 to t) in male Sprague-Dawley rat at 10 mg/kg, ip measured upto 24 hrs by LC-MS/MS analysis; format: ADME, organism-based; details: in vivo
[21] = Resistance index, ratio of IC50 for human DOHH2/Ib cells to IC50 for DOHH2 cells; format: functional

For `COc1cc(Nc2nc(N3CCN(CCOCCNc4cccc5c4C(=O)N(C4CCC(=O)NC4=O)C5=O)CC3)ncc2F)ccc1NC(=O)c1ccc(C2=CCCC2)s1` (centres undefined), the MRT last at 24 h [1] was 5.3 h, the Activity (SUD4 [2]) was “Tde” and the Activity (SUD4 [3]) was “Active”. For the same compound, the half-life [4] was 2.59 h, the inhibition at 1 µM (SUD4 [5]) was 66.1% and the MRT last at 24 h [6] was 2.48 h. For the same compound, the IC50 (OCI-Ly1) was 1370 nM, the AUC(0-t) at 24 h [7] was 2290 ng·h/mL and the IC50 (DOHH-2) was 56.2 nM. For the same compound, the Activity (SUD4 [8]) was “Dose-Dependent Effect”, the Activity [9] was “Non-Toxic” and the Activity (SUD4 [10]) was “Active”. For the same compound, the Activity [11] was “Active”, the Activity (SUD4 [12]) was “inactive” and the inhibition in vivo at 10 mg/kg [13] was 22.2%. The Activity [14] was 94.4%, the AUC(0-inf) [15] was 33900 ng·h/mL and the Activity (WI-38 VA13) was “Dose-Dependent Effect”. For the same compound, the IC50 at 6 days [16] was over 10000 nM, the IC50 (SUD4 [17]) was 399 nM and the Activity [18] was “Active”. The Activity (SUD4 [19]) was “Active”, the AUC(0-t) at 24 h [20] was 33800 ng·h/mL and the “Ratio IC50” value [21] was 31.7.
